Measurements published in paper PMC1887769 (The Journal of General Physiology, 1998).

Biological target: T1, αβγXENaC (Xenopus ENaC) (Xenopus laevis, UniProt P51167+P51169+P51171)
T1 sequence (P51167 1-632): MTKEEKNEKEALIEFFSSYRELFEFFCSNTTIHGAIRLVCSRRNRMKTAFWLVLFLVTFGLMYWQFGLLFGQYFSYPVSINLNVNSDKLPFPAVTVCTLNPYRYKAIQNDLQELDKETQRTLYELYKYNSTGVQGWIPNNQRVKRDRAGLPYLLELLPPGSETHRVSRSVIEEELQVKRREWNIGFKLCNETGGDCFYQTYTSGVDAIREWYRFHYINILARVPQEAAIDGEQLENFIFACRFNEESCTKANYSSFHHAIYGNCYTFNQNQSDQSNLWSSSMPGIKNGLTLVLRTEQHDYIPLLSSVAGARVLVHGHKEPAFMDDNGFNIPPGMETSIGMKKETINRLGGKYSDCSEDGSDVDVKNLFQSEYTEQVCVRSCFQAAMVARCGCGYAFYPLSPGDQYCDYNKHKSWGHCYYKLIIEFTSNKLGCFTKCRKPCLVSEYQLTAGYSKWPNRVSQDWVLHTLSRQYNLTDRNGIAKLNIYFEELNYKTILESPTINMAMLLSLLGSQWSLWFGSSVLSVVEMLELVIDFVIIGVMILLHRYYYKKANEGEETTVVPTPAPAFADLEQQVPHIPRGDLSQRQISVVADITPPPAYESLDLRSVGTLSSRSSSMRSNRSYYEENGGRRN
T1 sequence (P51169 1-647): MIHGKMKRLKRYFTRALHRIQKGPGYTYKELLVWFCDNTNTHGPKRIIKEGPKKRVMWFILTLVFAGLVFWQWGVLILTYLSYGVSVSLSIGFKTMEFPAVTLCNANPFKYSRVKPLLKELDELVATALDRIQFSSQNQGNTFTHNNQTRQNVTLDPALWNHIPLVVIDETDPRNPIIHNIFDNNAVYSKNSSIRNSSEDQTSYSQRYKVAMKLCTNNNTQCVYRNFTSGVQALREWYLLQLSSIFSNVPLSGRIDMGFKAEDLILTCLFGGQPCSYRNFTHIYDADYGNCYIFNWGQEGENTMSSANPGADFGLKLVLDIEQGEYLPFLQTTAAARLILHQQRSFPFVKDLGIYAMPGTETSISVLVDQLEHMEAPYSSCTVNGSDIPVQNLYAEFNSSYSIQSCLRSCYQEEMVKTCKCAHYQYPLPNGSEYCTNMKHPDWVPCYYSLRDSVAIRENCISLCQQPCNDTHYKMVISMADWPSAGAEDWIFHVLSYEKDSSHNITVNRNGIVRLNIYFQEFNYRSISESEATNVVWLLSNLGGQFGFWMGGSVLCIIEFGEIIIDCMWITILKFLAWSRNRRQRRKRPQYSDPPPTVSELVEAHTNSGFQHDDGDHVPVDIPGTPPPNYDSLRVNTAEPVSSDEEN
T1 sequence (P51171 1-660): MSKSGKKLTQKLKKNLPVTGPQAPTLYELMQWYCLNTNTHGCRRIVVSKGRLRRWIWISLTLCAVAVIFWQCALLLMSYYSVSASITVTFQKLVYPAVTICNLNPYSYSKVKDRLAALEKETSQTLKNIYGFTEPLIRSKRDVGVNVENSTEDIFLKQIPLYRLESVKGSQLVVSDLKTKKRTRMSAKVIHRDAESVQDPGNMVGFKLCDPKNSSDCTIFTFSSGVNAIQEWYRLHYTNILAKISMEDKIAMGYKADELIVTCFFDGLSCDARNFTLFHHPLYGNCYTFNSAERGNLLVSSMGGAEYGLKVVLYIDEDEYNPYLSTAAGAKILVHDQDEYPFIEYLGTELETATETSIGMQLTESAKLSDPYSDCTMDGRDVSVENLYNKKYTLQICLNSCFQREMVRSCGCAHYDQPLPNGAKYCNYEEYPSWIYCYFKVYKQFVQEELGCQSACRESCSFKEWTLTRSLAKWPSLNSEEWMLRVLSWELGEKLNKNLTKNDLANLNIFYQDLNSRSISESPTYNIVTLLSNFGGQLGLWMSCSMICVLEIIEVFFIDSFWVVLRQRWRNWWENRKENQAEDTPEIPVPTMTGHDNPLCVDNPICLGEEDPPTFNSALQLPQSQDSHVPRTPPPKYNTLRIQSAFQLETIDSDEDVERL
Test: two-electrode voltage clamp of Na+ current in oocytes
Type: cell-based

Structure (SMILES): N=C(N)NC(=O)c1nc(Cl)c(N)nc1N [amiloride]
- Ki: 550 ± 30 nM
